Test results as given in paper PMC5814754, “Quantitative, Wide-Spectrum Kinase Profiling in Live Cells for Assessing the Effect of Cellular ATP on Target Engagement” (Cell Chemical Biology, 2018).
Where two headings read alike, the source gives them in different places.

How the values were obtained:
[1] = biological target: full-length kinase/Nluc fusion proteins (Homo sapiens, UniProt P06239); assay: Apparent affinity (EC50) of energy transfer probes by titration onto live HEK293 cells expressing kinase/Nluc fusions (Table S1); assay type: binding; conditions: LCK
Chain of full-length kinase/Nluc fusion proteins (P06239 whole entry, the tested form may be a part): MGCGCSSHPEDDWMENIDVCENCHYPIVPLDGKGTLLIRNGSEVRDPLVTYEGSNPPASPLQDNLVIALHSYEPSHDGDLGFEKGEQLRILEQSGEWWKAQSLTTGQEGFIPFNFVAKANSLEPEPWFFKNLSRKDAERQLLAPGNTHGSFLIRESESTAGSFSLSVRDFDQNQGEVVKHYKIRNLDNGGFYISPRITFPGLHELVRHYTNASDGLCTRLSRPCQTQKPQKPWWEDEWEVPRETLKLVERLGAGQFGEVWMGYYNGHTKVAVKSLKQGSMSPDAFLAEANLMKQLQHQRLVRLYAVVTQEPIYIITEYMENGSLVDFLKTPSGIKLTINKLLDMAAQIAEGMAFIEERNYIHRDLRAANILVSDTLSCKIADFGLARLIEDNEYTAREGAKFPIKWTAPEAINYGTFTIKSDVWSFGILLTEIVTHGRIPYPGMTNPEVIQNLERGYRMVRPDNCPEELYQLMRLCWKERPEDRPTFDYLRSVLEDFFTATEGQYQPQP

MuSK = biological target: T1, MuSK (Homo sapiens, UniProt O15146); assay: NanoBRET target engagement, MuSK-NanoLuc, HEK293 cells (live, ATP depleted, permeabilized); assay type: binding; conditions: read-out: Tracer Affinity EC50
T1 sequence (O15146 24-869): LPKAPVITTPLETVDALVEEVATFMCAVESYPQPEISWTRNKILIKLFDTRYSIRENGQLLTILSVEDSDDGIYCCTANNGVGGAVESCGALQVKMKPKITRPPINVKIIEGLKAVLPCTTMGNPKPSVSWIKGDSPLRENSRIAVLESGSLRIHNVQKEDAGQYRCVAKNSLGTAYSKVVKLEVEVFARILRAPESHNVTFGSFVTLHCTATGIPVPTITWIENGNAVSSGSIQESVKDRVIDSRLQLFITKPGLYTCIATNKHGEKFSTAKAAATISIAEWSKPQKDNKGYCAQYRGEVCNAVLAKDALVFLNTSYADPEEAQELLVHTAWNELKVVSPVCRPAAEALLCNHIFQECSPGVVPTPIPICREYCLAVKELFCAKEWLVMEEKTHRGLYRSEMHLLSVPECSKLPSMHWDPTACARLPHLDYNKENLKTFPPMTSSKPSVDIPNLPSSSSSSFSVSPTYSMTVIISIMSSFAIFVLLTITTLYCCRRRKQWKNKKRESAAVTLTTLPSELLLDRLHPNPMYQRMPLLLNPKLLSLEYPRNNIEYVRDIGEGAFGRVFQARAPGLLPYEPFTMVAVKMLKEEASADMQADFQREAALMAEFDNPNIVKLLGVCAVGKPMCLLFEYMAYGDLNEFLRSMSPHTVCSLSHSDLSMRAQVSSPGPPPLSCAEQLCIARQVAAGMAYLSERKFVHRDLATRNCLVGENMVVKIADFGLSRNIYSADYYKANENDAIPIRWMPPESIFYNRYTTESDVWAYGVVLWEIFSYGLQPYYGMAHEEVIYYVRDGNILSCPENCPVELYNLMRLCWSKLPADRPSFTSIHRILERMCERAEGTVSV

INSR = conditions: read-out: Live Cell IC50 Phospho Elisa; ref Cui et al., 2011; cited from earlier work
MET [2] = conditions: read-out: Live Cell IC50 Phospho Elisa; ref Cui et al., 2011; cited from earlier work
EPHB6 = biological target: T2, EPHB6 (Homo sapiens, UniProt O15197); assay: NanoBRET target engagement, EPHB6-NanoLuc, HEK293 cells (live, ATP depleted, permeabilized); conditions: for EC50: read-out: Tracer Affinity EC50, EPHB6-NanoLuc
T2 sequence (O15197 32-1021): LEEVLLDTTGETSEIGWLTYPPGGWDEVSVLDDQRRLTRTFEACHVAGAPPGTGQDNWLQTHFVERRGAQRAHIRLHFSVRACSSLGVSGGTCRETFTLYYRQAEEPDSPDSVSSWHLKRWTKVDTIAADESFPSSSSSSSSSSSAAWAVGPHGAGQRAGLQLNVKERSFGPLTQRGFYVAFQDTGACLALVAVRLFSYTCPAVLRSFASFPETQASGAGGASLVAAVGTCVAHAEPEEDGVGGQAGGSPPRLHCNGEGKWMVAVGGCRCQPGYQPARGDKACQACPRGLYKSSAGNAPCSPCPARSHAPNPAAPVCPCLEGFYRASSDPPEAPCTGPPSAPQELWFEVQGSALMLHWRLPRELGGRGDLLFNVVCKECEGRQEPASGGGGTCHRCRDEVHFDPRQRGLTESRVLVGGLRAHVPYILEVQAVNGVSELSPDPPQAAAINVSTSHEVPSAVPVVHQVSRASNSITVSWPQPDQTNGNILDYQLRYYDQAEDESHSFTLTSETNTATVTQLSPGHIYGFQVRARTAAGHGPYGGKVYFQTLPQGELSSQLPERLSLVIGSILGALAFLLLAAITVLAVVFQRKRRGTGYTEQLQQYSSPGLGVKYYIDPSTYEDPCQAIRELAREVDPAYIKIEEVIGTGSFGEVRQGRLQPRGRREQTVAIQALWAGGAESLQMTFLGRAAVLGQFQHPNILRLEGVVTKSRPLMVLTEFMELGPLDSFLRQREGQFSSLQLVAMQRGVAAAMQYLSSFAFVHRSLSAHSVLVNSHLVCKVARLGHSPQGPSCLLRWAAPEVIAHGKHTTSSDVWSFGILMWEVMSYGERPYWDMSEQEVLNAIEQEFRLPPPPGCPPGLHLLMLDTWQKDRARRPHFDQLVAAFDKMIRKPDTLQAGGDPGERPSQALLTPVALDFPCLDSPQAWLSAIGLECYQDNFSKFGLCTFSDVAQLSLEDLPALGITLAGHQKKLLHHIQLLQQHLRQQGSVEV

LCK [3] = conditions: read-out: Crizotinib IC50 Biochemical; ref Cui et al., 2011; cited from earlier work
LCK [4] = conditions: read-out: cellular potency (phospho-ELISA), ref Cui et al., 2011; cited from earlier work
TIE2 = conditions: read-out: Crizotinib IC50 Biochemical; ref Cui et al., 2011; cited from earlier work
178 full-length kinases [5] = biological target: 178 full-length kinases (Homo sapiens, UniProt P53779); assay: NanoBRET single-dose fractional occupancy profiling of kinase/Nluc library in live HEK293 cells (Table S1); assay type: binding; set-up: Occupancy, % Replicate 1 / Occupancy, % Replicate 2: unit of the concentration uncertain; conditions: JNK3, Nluc C, probe 5 at 1 (unit uncertain)
Chain of 178 full-length kinases (Homo sapiens, UniProt P53779) (P53779 whole entry): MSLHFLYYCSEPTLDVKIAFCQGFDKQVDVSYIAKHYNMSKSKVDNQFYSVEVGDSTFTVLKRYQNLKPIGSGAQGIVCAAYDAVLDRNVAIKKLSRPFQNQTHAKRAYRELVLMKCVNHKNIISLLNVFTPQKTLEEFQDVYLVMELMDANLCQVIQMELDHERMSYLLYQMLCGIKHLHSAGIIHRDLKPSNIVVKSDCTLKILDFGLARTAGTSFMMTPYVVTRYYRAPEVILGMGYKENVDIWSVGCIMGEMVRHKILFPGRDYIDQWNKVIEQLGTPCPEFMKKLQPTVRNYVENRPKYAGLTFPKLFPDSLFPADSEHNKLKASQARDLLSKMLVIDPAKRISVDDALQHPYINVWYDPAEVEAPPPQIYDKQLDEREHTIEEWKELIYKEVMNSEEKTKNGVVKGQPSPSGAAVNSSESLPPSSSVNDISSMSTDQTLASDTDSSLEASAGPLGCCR

178 full-length kinases [6] = biological target: 178 full-length kinases (Homo sapiens, UniProt P36896); assay: as above; assay type: binding; set-up: Occupancy, % Replicate 1 / Occupancy, % Replicate 2: unit of the concentration uncertain; conditions: ACVR1B, Nluc C, probe 5 at 1 (unit uncertain)
Chain of 178 full-length kinases (Homo sapiens, UniProt P36896) (P36896 24-505): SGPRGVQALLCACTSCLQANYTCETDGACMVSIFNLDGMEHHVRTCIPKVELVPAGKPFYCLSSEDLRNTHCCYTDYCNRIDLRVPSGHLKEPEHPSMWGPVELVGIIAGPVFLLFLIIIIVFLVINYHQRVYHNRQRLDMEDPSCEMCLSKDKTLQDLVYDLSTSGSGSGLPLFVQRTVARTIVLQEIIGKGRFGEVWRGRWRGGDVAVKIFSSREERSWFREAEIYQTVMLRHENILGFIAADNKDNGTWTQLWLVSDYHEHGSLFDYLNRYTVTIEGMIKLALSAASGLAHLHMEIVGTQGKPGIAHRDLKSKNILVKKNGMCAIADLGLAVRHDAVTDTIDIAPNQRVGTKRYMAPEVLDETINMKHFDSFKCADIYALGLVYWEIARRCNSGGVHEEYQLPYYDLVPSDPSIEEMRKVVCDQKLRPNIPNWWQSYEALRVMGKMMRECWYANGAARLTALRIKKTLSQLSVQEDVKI

ABL = conditions: read-out: Live Cell IC50 Phospho Elisa; ref Cui et al., 2011; cited from earlier work
MET [7] = conditions: read-out: Crizotinib IC50 Biochemical; ref Cui et al., 2011; cited from earlier work
TRKA [8] = conditions: read-out: Crizotinib IC50 Biochemical; ref Cui et al., 2011; cited from earlier work
AXL = conditions: read-out: Crizotinib IC50 Biochemical; ref Cui et al., 2011; cited from earlier work
TRKA [9] = conditions: read-out: Live Cell IC50 Phospho Elisa; ref Cui et al., 2011; cited from earlier work

CNC(=O)c1ccccc1Nc1nc(Nc2ccc(N3CCN(C(=O)CCOCCOCCOCCOCCNC(=O)CCc4ccc5n4[B-](F)(F)[N+]4=C(c6ccc[nH]6)C=CC4=C5)CC3)cc2)ncc1Cl [Energy Transfer Probe 5, 2-((2-((4-(4-(1-amino-3,6,9,12-tetraoxapentadecan-15-oyl)piperazin-1-yl)phenyl)amino)-5-chloropyrimidin-4-yl)amino)-N-methylbenzamide-NanoBRET 590]
EC50 ([1]; Nluc C (probe 5)): > 1000 nM
EC50 (MuSK; ATP Depleted): > 1000 nM
EC50 (MuSK; Live): > 1000 nM
EC50 (MuSK; Permeabilized): 180 ± 20 nM

C[C@@H](Oc1cc(-c2cnn(C3CCNCC3)c2)cnc1N)c1c(Cl)ccc(F)c1Cl [Crizotinib]
receptor occupancy at 1 µM (EPHB6; read-out: cellular occupancy): < 10%
Occupancy, % Replicate 1 (178 full-length kinases [5]): No Binding
Occupancy, % Replicate 2 (178 full-length kinases [5]): No Binding
Occupancy, % Replicate 2 (178 full-length kinases [6]): No Binding
IC50 (TRKA [9]): 580 nM

Cc1nc(Nc2ncc(C(=O)Nc3c(C)cccc3Cl)s2)cc(N2CCN(CCOCCNC(=O)CCc3ccc4n3[B-](F)(F)[N+]3=C(c5ccc[nH]5)C=CC3=C4)CC2)n1 [Energy Transfer Probe 6, 2-((6-(4-(2-(2-aminoethoxy)ethyl)piperazin-1-yl)-2-methylpyrimidin-4-yl)amino)-N-(2-chloro-6-methylphenyl)thiazole-5-carboxamide-NanoBRET 590]
EC50 (EPHB6; ATP Depleted): > 1000 nM
EC50 (EPHB6; Live): > 1000 nM
EC50 (EPHB6; Permeabilized): 7 ± 3 nM
EC50 ([1]; Nluc C (probe 6)): > 1000 nM
